# Where two headings read alike, the source gives them in different places.
# Assays:
# SMN protein = experiment: Study BP39055 Part 1: SMN protein in Type 2 and 3 SMA patients; assay type: in vivo, human
# Description: (§1) Study BP39055 is a two-part operationally seamless, multi-center, randomized, placebo-controlled, double-blind study to investigate the safety, tolerability, pharmacokinetics (PK), pharmacodynamics (PD) and efficacy of RO7034067 in Type 2 and 3 spinal muscular atrophy (SMA) patients. The study consists of an exploratory dose-finding part (Part 1) and a confirmatory part (Part 2).
# (§2) The primary objective of Part 1 is to evaluate the safety, tolerability, PK and PD of RO7034067 in patients with Type 2 and Type 3 (ambulant or non-ambulant) SMA, and to select the dose for Part 2 of the study.
# (§3) Part 1 was a double-blinded, placebo-controlled, randomized (2:1 RO7034067:placebo), exploratory dose-finding study in Type 2 and Type 3 (ambulant and non-ambulant) SMA patients. This will be followed by an open-label extension (OLE) at the same dose as selected for Part 2 of the study.
# (§4) Part 1 of the study enrolled patients in two age groups: • Group A: adolescent and adult patients aged 12 25 years • Group B: children aged 2 11 years RO7034067 dose levels were investigated in a staggered, dose escalation manner in both age groups.
# (§5) The dose recommended by the IMC for this age group according to the target AUC0-24 h,ss of 700 ng[…]h/mL was 0.02 mg/kg (see IMC recommendation of 12 Dec. 2016 in Appendix 1); 10 patients aged 3-11 years were enrolled in Cohort B1. • At the same time point (i.e., once safety and tolerability were confirmed based on the review of at least 4 weeks of treatment at 3 mg once daily in 9 patients in Cohort A1), enrolment was opened to another cohort of 9 adult and adolescent patients (Cohort A2) receiving RO7034067 5 mg once daily (see IMC recommendation of 19 Jan. 2017 in Appendix 1). As per protocol, the higher dose level was determined such as to achieve maximum SMN protein increase, without exceeding the exposure cap (Cmax 400 ng/mL; mean AUC0 24 h,ss 2000 ng[…]h/mL); 10 patients aged 13[…]24 years were enrolled in Cohort A2. • Based on the review of a minimum of 4 weeks of treatment at 0.02 mg/kg in 9 patients enrolled in Cohort B1, the following recommendations were made by the IMC: i) to increase the dose in these patients to 0.05 mg/kg without exceeding a cap dose of 3 mg, and ii) to enroll a minimum of 9 additional patients aged 2[…]11 years at a dose of 0.05 mg/kg without exceeding a cap dose of 3 mg (Cohort B2), targeting at least 5 patients aged 2[…]6 years (see IMC recommendation of 13 Mar. […] At the same time point, enrollment was opened to another cohort of 9 patients at the dose of 0.25 mg/kg without exceeding a cap dose of 5 mg (Cohort B3), determined such as to achieve maximum Survival of Motor Neuron (SMN) protein increase, without exceeding the exposure cap (Cmax 400 ng/mL; mean AUC0-24 h,ss 2000 ng[…]h/mL); 10 patients aged 2[…]11 years were enrolled in Cohort B3. • Upon completion of at least 12 weeks of placebo-controlled treatment by a minimum of 9 patients of each cohort, the IMC reviewed all available data from the cohort to make the decision to switch placebo patients to active treatment at the dose tested in their respective cohort. Dates of the IMC decisions to switch placebo patients to active treatment in the respective cohorts are provided in Section 1.3. • For the last cohort in Part 1 (Cohort B3), all available safety, tolerability, PK and PD data following completion of a minimum of 4 weeks treatment by the 9th patient (including all available data for the 10th patient of the last cohort who was enrolled approximately 1 week after the 9th patient, and all available data from all previous cohorts) were reviewed by the IMC in order to select the dose to be administered in Part 2 of the study. This dose selection was confirmed by the external iDMC following review of the same data package. […]
# [1] = Study BP39055 Part 1: pharmacokinetics (AUC0-24h,ss) in SMA patients; assay type: in vivo, human; conditions: for AUC(0-t): human, in vivo, read-out: estimated AUC0-24h,ss, median
# Description: as §1, §2, §3, §4, §5
# retina = experiment: 26 weeks of treatment in pigmented rats: retina; assay type: in vivo
smiles,measurement,setting,value
"Cc1cn2nc(-c3cc(=O)n4cc(N5CCNC6(CC6)C5)ccc4n3)cc(C)c2n1 [RO7034067, 7-(4,7-diazaspiro[2.5]octan-7-yl)-2-(2,8-dimethylimidazo[1,2-b]pyridazin-6-yl)pyrido[1,2-a]pyrimidin-4-one]","Fold-Increase from the Baseline in SMN Protein on Day 28, median",SMN protein; 0.02 mg,1.09 fold
same,"Fold-Increase from the Baseline in SMN Protein on Day 28, median",SMN protein; 0.05 mg,1.51 fold
same,"Fold-Increase from the Baseline in SMN Protein on Day 28, median",SMN protein; 0.15 mg/kg,1.67 fold
same,"Fold-Increase from the Baseline in SMN Protein on Day 28, median",SMN protein; 0.25 mg/kg,1.96 fold
same,SMN protein increase versus baseline (median),"SMN protein; 0.25 mg/kg, 2-11 year age group",96%
same,"Fold-Increase from the Baseline in SMN Protein on Day 28, median",SMN protein; 3 mg,2.25 fold
same,"Fold-Increase from the Baseline in SMN Protein on Day 28, median",SMN protein; 5 mg,2.51 fold
same,median SMN protein increase versus baseline,"SMN protein; 5 mg, SMA patients 12-25 years old",151%
same,AUC(0-t),"[1]; 2-11 yr, 0.02 mg/kg",133 ng·h/mL
same,AUC(0-t),"[1]; 2-11 yr, 0.05 mg/kg",407 ng·h/mL
same,AUC(0-t),"[1]; 2-11 yr, 0.15 mg/kg",822 ng·h/mL
same,AUC(0-t),"[1]; 2-11 yr, 0.25 mg/kg",1450 ng·h/mL
same,AUC(0-t),"[1]; 12-25 yr, 3 mg",1040 ng·h/mL
same,AUC(0-t),"[1]; 12-25 yr, 5 mg",1610 ng·h/mL
same,"predicted mean exposure (AUC0-24h,ss)","[1]; selected BP39055 Part 2 dose, all patients 2-25 years of age",1690 ng·h/mL
same,retinal effects,retina,no evidence for any retinal effects
